Entries after “also recorded” stand apart in the source; their conditions may differ.
Key:
[1] = target: T1, aryl hydrocarbon receptor (AhR) (Homo sapiens, UniProt P35869); experiment: AhR/XRE-dependent luciferase reporter gene assay in XRE-HepG2 cells; type: cell-based; conditions: XRE-HepG2 cells, 8 h; unit as in the supplements; read-out: AhR/XRE-dependent luciferase activity EC50
T1 construct: AhR-dependent reporter gene activity was determined in human HepG2 cells stably transfected with an XRE; endogenous in cells; host or cells: XRE-HepG2 (human HepG2 hepatoma cells stably carrying an XRE-luciferase plasmid)
T1 sequence (P35869 11-848): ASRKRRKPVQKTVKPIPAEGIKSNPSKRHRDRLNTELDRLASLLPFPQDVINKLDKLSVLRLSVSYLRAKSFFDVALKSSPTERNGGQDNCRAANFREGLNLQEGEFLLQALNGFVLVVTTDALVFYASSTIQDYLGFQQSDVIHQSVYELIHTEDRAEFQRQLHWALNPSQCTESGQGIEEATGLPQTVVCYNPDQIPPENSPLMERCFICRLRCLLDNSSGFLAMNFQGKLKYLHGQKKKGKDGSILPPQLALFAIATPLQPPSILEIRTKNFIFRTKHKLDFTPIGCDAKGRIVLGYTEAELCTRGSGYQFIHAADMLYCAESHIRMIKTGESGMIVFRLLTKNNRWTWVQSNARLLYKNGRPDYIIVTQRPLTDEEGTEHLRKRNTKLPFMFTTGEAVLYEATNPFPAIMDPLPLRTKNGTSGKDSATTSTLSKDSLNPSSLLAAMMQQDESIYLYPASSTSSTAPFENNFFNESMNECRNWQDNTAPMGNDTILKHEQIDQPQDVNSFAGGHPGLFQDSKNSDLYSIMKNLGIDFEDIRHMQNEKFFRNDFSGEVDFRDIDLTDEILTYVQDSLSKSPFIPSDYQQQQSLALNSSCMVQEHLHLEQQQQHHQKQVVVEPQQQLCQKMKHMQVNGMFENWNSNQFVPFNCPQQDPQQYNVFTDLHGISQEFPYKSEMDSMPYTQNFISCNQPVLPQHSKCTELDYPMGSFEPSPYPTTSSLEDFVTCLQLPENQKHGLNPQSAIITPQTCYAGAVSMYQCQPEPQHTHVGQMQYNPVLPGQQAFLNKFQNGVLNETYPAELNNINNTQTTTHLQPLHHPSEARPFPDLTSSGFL
Method: (f) AhR/XRE-dependent reporter gene activity results (EC50/μM).
Data are shown as mean ± SEM.
The human XRE -HepG2 reporter cell -line was a kind gift of K. Gradin and L. Poellinger (Karolinska Institute, Stockholm,
antibiotic/antimycotic solution, and 0.8 mg/ml G418. All cells were cultivated at 37 °C in a humidified atmosphere containing 5% CO 2.
AhR-dependent reporter gene activity was determined in human HepG2 cells stably transfected with an XRE -harboring luciferase plasmid (XRE-HepG2 cells). […] Luciferase activity was normalized to protein content.

HEK293T cells = experiment: Cell viability (Annexin V-APC, flow cytometry) in HEK293T cells; type: cell-based; conditions: 24 h
Method: (§1) A phosphatidylserine exposure was used to determine cell viability. Cells were washed with PBS, pelleted, and then incubated with annexin binding buffer containing Annexin V-APC (Life Technologies) for 15 min in the dark. Then, samples were analyzed by flow cytometry using FACSCanto II and FACSDiva (BD Biosciences, Franklin Lakes, NJ, USA). Data represents the percentage of non - apoptotic cells (Ann -APC-).
(§2) The cytotoxicity of a selection of the synthesized compounds was assessed after 24 hours of treatment in two human cell lines, Jurkat and HEK293T, coming from either tumoral T-cell lymphocytes or non-tumoral embryonic kidney fibroblasts, respectively. […]
(§3) the pro-apoptotic activity was not significant below 10 µM for most compounds in both cell lines, except for 5i, 5k and 5l in both cell lines, as well as 9a in Jurkat and 5e HEK293T cells (Figure S35A-B).
(§4) Moreover, the cytotoxicity of compounds 4d, 5b, 5h, 8, 10, and 12d at a higher concentration (100 µM) was assessed in both cell lines, Jurkat and HEK293T. The cytotoxicity of compounds 5b, 5h, and 12d could not be properly tested as the compounds were not soluble […]
(§5) effects observed for compound 4d in Jurkat cells and compound 8 in HEK293T cells (Figure S35C).
(§6) Figure S35. A) Jurkat and B) HEK293T cells were treated with 1 and 10 µM doses of the corresponding compound for 24 hours. Indicated doses of fluorizoline were used as a positive control of cell death. C) Jurkat and HEK293T cells were treated with 100 µM of the corresponding compound for 24 hours. Viability was measured by flow cytometry, and it is expressed as the mean ± SEM (n = 3) of the percentage of non -apoptotic cells (Ann-APC-). * p < 0.05, ** p < 0.01 *** p < […]
(§7) (1 picture or pasted object on this page, not shown here)

Jurkat cells = experiment: Cell viability (Annexin V-APC, flow cytometry) in Jurkat cells; type: cell-based; conditions: 24 h
Method: as §1, §2, §3, §4, §5, §6, §7

AhR = target: T2, AhR (Homo sapiens, UniProt P35869); experiment: Western blot of AhR in MCF7 cells; type: cell-based; conditions: 10 µM, 5 h
T2 construct: Degradation of endogenous AhR was further confirmed via Western blotting and global proteomics measurements in cells treated with 12b; host or cells: MCF7
T2 sequence (P35869 11-848): T1 sequence (P35869 11-848)
Method: Figure S30. Agonists induce degradation of AhR.
12b, 12c, and 12d at a concentration of 10 µM for 5h. The numbers on the Blot indicate the signal intensities of the bands relative to the Tubulin bands, normalized to DMSO treatment as quantified with Empiria Studio. […]
Cell culture and treatment […]
MCF7 cells were purchased from ATCC and grown in DMEM with 10% FCS and 1% penicillin/ streptomycin. […]
All cells were cultivated at 37 °C in a humidified atmosphere containing 5% CO 2.
Tapinarof (MedChemExpress, Monmouth Junction, NJ), benzo[a]pyrene (Sigma-Aldrich, Taufkirchen, Germany), TCDD (Amchro, Hattersheim am Main, Germany) and all compounds synthesized in this study were dissolved in dimethyl sulfoxide (DMSO; Roth). […]
Quantitative real-time PCR […]
• CYP1A1: […] (forward (5'>3')); […] (reverse (5'>3')).
• CYP1B1: […] (forward (5'>3')); […] (reverse (5'>3')).
• CCL26: […] (forward (5'>3')); […] (reverse (5'>3')).
• IL-19: […] (forward (5'>3')); […] (reverse (5'>3')).
• CXCL1: […] (forward (5'>3')); […] (reverse (5'>3')).
• β-actin: […] (forward (5'>3')); […] (reverse (5'>3')). […]
The assay was carried out as described earlier. Luciferase activity was normalized to protein content.
SDS-PAGE/Western blot analysis
Cells were lysed in RIPA buffer on ice and subsequently centrifuged for 15 min at 4 °C at maximum speed. Protein samples were separated by 10% and 12% SDS -polyacrylamide gel electrophoresis and blotted onto PVDF (GE Healthcare, Freiburg, Germany) or Nitrocellulose (BioRad #17 04158) membranes. Blots were blocked with 5% skim milk or bovine serum albumin in TBS -Tween-20 (0.1%) for or Intercept® (TBS) Blocking Buffer (LI -COR Biosciences) 1 h at room temperature and subsequently incubated overnight at 4 °C with primary antibodies. Blots were washed and then incubated for 1 h with a 1:5000 dilution of HRP -conjugated secondary antibodies in 5% bovine serum albumin in TBS -Tween-20 (0.1%) or anti-Mouse (Licor, IRDye® 680RD Goat anti -Mouse IgG, 1:10k dilution) or anti-Rabbit secondary antibody (Licor, IRDye® Goat anti -Rabbit IgG, 1:10k dilution) at room temperature. Bands were visualized using WesternBright ECL HRP substrate (Advansta, San Jose, CA) and a C -DiGit Western Blot Scanner (LI -COR Biotechnology, Lincoln, NE) or a Licor Odyssey CLx imager. Primary antibodies used in this study are as follows. AhR (Cat.No. 83200; Cell Signaling Technology, Leiden, The Netherlands). AIP (Cat.No. sc-59730; Santa Cruz Biotechnology, Dallas, TX). Cul4B (Cat.No. abx004735; Abbexa, Houston, TX). GAPDH (Cat.No. 2118; Cell Signaling Technology). Vinculin (Cat.No. 13901, Cell Signaling Technology). α - Tubulin (Abcam, ab7291, 1:10k dilution).
HaCaT-EV and HaCaT-shAhR cells were treated with either vehicle (DMSO) or 10 µM 12d for 0.5 h and 1 h. […]

HaCaT cells = experiment: UVA phototoxicity, caspase 3 activity in HaCaT cells; type: cell-based, human; conditions: for UVA radiation-induced caspase activity (phototoxicity): HaCaT, 1 h, UVA 5 J/cm2
Method: Irradiation with UVA and caspase 3 activity measurement […]
culture media was exchanged with PBS and the cells were sham or UVA (5 J/cm2) irradiated using the BS-02 irradiation chamber (Opsytec Dr. Gröbel, Ettlingen Germany). Media was added to the cells and after 4 h incubation, caspase 3 activity was measured as described previously.[33] Protein quantification was done with the Bio-Rad DC protein assay kit (Bio-Rad Laboratories, Hercules, CA) according to the manufacturer protocol.
We compared the phototoxic potential of five of our test compounds (8, 10, 5b, 5h, 4b) as well as the FDA-approved AhR activator […]
induced caspase activity at a concentration of 100 nM (Figure S36A). At a 10-fold higher concentration (1 µM) two of the test compounds […]
Figure S36. […] For statistical analysis a two-way ANOVA (Tukey post-hoc) was performed and data are shown as mean ± SEM. (*, p ≤ 0.05). […]

[2] = Solubility in the growing media during cytotoxicity testing; type: physicochemical; conditions: concentration of 100 µM
Method: as §1, §2, §3, §4, §5, §6, §7

SMILES | EC50 [1] [µM] | cytotoxicity / pro-apoptotic activity at 100 µM (HEK293T cells) | cytotoxicity / pro-apoptotic activity at 100 µM (Jurkat cells) | AhR receptor proteolysis (AhR) | overlap between effective and toxic concentrations (HaCaT cells) | UVA radiation-induced caspase activity (phototoxicity) (HaCaT cells; 100 nM) | UVA radiation-induced caspase activity (phototoxicity) (HaCaT cells; 1 µM) | solubility in the growing media [2]
Cn1c2ccccc2c2c(C3=C(O)CC(C)(C)CC3=O)c3c(cc21)c1ccccc1n3C [4d] | 1.31 | minimal pro-apoptotic activity | slight cytotoxic effects | – | – | – | – | –
COc1ccc2[nH]cc(-c3c4[nH]c5ccccc5c4cc4[nH]c5ccccc5c34)c2c1 [5a] | 0.6 | – | – | induced receptor proteolysis | – | – | – | –
Cn1cc(-c2c3[nH]c4ccccc4c3cc3[nH]c4ccccc4c23)c2ccccc21 [5d] | 0.38 | – | – | induced receptor proteolysis | – | – | – | –
Cc1[nH]c2ccccc2c1-c1c2[nH]c3ccc(F)cc3c2cc2[nH]c3ccc(F)cc3c12 [5k] | 2.74 | – | – | induced receptor proteolysis | – | – | – | –
CC(=O)Nc1ccccc1C(=O)c1c2[nH]c3ccccc3c2cc2[nH]c3ccccc3c12 [compound 10] | 0.26 | minimal pro-apoptotic activity | minimal pro-apoptotic activity | – | minimal overlap | neither tapinarof nor our 6-ICZ compounds enhanced | did not show any signs of phototoxicity; also recorded: no phototoxicity | slight turbidity
